From the supplement of paper PMC10307832

What was measured:
Test in all cases: relative viability (nuclei count vs DMSO), 5 days (fraction); higher = more cells survive
[1] = compound: COc1cc2nccc(Oc3ccc(NC(=O)C4(C(=O)Nc5ccc(F)cc5)CC4)cc3)c2cc1OC [Cabozantinib] + Cc1cc(Nc2cc(N3CCN(C)CC3)nc(Sc3ccc(NC(=O)C4CC4)cc3)n2)n[nH]1 [Tozasertib] (partner 0.1 µM)
In short: (§1)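 After 5 days of treatment, lung cancer cells in 1536-well plates were fixed and stained in a single step (final 0.05% Triton X-100, 1% formaldehyde, 1 ug/ml Hoechst) and their nuclei counted on 4× images. Treatment had been applied by pin tool the day after seeding as one drug alone or as a fixed anchor-drug dose with five library-drug doses (not always all listed) in √10 steps. Relative viability is the nuclei count of treated wells divided by that of vehicle wells, and values are medians of duplicate plates.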

Zosuquidar + Decitabine = compound: O[C@@H](COc1cccc2ncccc12)CN1CCN([C@@H]2c3ccccc3[C@@H]3[C@H](c4ccccc42)C3(F)F)CC1 [Zosuquidar] + Nc1ncn([C@H]2C[C@H](O)[C@@H](CO)O2)c(=O)n1 [Decitabine] (partner 2 µM)
In short: as §1

Zosuquidar + Alpelisib = compound: O[C@@H](COc1cccc2ncccc12)CN1CCN([C@@H]2c3ccccc3[C@@H]3[C@H](c4ccccc42)C3(F)F)CC1 [Zosuquidar] + Cc1nc(NC(=O)N2CCC[C@H]2C(N)=O)sc1-c1ccnc(C(C)(C)C(F)(F)F)c1 [Alpelisib] (partner 2 µM)
In short: as §1

Zosuquidar + Palbociclib = compound: O[C@@H](COc1cccc2ncccc12)CN1CCN([C@@H]2c3ccccc3[C@@H]3[C@H](c4ccccc42)C3(F)F)CC1 [Zosuquidar] + CC(=O)c1c(C)c2cnc(Nc3ccc(N4CCNCC4)cn3)nc2n(C2CCCC2)c1=O [Palbociclib] (partner 0.5 µM)
In short: as §1

Cell Line | relative viability ([1]; first compound 0.06325 µM) | relative viability ([1]; first compound 0.2 µM) | relative viability ([1]; first compound 0.6325 µM) | relative viability ([1]; first compound 2 µM) | relative viability (Zosuquidar + Decitabine; first compound 0.01 µM) | relative viability (Zosuquidar + Decitabine; first compound 0.1 µM) | relative viability (Zosuquidar + Decitabine; first compound 0.3162 µM) | relative viability (Zosuquidar + Decitabine; first compound 1 µM) | relative viability (Zosuquidar + Alpelisib; first compound 0.01 µM) | relative viability (Zosuquidar + Alpelisib; first compound 0.03162 µM) | relative viability (Zosuquidar + Alpelisib; first compound 0.1 µM) | relative viability (Zosuquidar + Alpelisib; first compound 0.3162 µM) | relative viability (Zosuquidar + Alpelisib; first compound 1 µM) | relative viability (Zosuquidar + Palbociclib; first compound 0.01 µM) | relative viability (Zosuquidar + Palbociclib; first compound 0.1 µM) | relative viability (Zosuquidar + Palbociclib; first compound 0.3162 µM) | relative viability (Zosuquidar + Palbociclib; first compound 1 µM) | relative viability ([1]; first compound 0.02 µM) | relative viability (Zosuquidar + Decitabine; first compound 0.03162 µM) | relative viability (Zosuquidar + Palbociclib; first compound 0.03162 µM)
NCI-H23 | 0.47 | 0.387 | 0.325 | 0.292 | 0.29 | 0.306 | 0.302 | 0.324 | 0.669 | 0.718 | 0.728 | 0.704 | 0.687 | 0.45 | 0.516 | 0.578 | 0.524 | – | – | –
NCI-H1993 | 0.625 | 0.565 | 0.572 | 0.542 | 0.609 | – | 0.583 | 0.546 | 0.628 | 0.725 | 0.625 | 0.674 | 0.705 | 0.653 | – | 0.617 | 0.615 | 0.546 | 0.615 | 0.603
Calu-6 | – | – | – | – | – | – | – | – | 0.938 | 0.972 | 1.01 | 1.12 | 0.879 | – | – | – | – | – | – | –
NCI-H1648 | 0.658 | 0.51 | 0.59 | 0.385 | 0.427 | 0.434 | 0.455 | 0.489 | – | – | – | – | – | 0.297 | 0.289 | 0.305 | 0.242 | 0.704 | 0.612 | 0.319
NCI-H1623 | 0.42 | 0.427 | 0.443 | 0.455 | – | – | – | – | – | – | – | – | – | – | – | – | – | 0.4 | – | –
NCI-H460 | 0.57 | 0.447 | 0.356 | 0.0953 | 0.459 | 0.335 | 0.55 | 0.44 | 0.398 | 0.526 | 0.539 | 0.551 | 0.529 | 0.15 | 0.203 | 0.171 | 0.19 | 0.574 | 0.448 | 0.18
NCI-H3122 | 0.431 | 0.385 | 0.42 | 0.458 | 0.394 | 0.417 | 0.508 | 0.457 | 0.714 | 0.769 | 0.679 | 0.764 | 0.763 | 0.177 | 0.18 | 0.213 | 0.197 | 0.412 | 0.449 | 0.195
HCC-44 | 1.27 | 0.979 | 1 | 0.758 | 0.981 | 1 | 0.934 | 0.919 | 0.753 | 0.817 | 0.842 | 0.885 | 0.755 | 0.974 | 0.944 | 1.02 | 0.956 | – | 0.961 | 1.04
HCC-78 | 0.414 | 0.445 | 0.367 | 0.311 | 0.75 | – | 0.804 | 0.637 | 0.343 | 0.313 | – | 0.325 | 0.379 | 0.477 | – | 0.492 | 0.462 | – | – | 0.545
